Experimental data: ChEMBL document CHEMBL1134495, “3D-QSAR model of flavonoids binding at benzodiazepine site in GABAA receptors” (J Med Chem, 2001)

What follows are compounds tested against GABA-A receptor; anion channel (assay: Binding affinity towards benzodiazepine site in GABAA receptor).
Type: protein-complex assay

| SMILES | -Log Ki |
| --- | --- |
| O=c1cc(-c2cccc([N+](=O)[O-])c2)oc2ccc([N+](=O)[O-])cc12 | 7.92 |
| COc1ccc(-c2cc(=O)c3cc(Br)ccc3o2)cc1 | 5.68 |
| O=c1cc(-c2cccc(F)c2)oc2ccc(Br)cc12 | 7.38 |
| O=c1cc(-c2cccc(Cl)c2)oc2ccc(F)cc12 | 6.7 |
| O=c1cc(-c2ccc(Br)cc2)oc2ccc([N+](=O)[O-])cc12 | 7.6 |
| COc1ccc(-c2cc(=O)c3cc(Cl)ccc3o2)cc1 | 5.9 |
| O=c1cc(-c2ccc(F)cc2)oc2ccccc12 | 5.44 |
| O=c1cc(-c2cccc(F)c2)oc2ccccc12 | 5.45 |
| O=c1cc(-c2cccc([N+](=O)[O-])c2)oc2ccc(Br)cc12 | 9 |
| O=c1cc(-c2cccc(Br)c2)oc2ccc(Cl)cc12 | 7.64 |
| O=c1cc(-c2ccc(F)cc2)oc2ccc(Cl)cc12 | 6.74 |
| O=c1cc(-c2cccc(Br)c2)oc2ccc(Br)cc12 | 7.72 |
| O=c1cc(-c2ccc(F)cc2)oc2ccc(F)cc12 | 5.6 |
| O=c1cc(-c2ccc([N+](=O)[O-])cc2)oc2ccc(Br)cc12 | 6.7 |
| O=c1cc(-c2cccc(Br)c2)oc2ccc(F)cc12 | 6.63 |
| O=c1cc(-c2cccc(Br)c2)oc2ccccc12 | 6.38 |
| O=c1cc(-c2cccc(F)c2)oc2ccc(Cl)cc12 | 6.93 |
| O=c1cc(-c2cccc([N+](=O)[O-])c2)oc2ccc(F)cc12 | 6.74 |
| O=c1cc(-c2cccc(O)c2)oc2ccc(Cl)cc12 | 6.07 |
| O=c1cc(-c2cccc(F)c2)oc2ccc(F)cc12 | 6.04 |
| O=c1cc(-c2ccccc2)oc2c(Br)c(O)c(Br)c(O)c12 | 6.15 |

| SMILES | -Log Ki |
| --- | --- |
| O=c1cc(-c2ccccc2F)oc2ccc(Br)cc12 | 6.42 |
| O=c1cc(-c2ccccc2F)oc2ccc(Cl)cc12 | 6.38 |
| O=c1cc(-c2cccc(Cl)c2)oc2ccccc12 | 6.21 |
| O=c1cc(-c2ccccc2[N+](=O)[O-])oc2ccc(Br)cc12 | 6.68 |
| O=c1cc(-c2cccc(O)c2)oc2ccc(Br)cc12 | 6.22 |
| O=c1cc(-c2cccc(Cl)c2)oc2ccc(Cl)cc12 | 7.64 |
| O=c1cc(-c2ccccc2Cl)oc2cc(O)cc(O)c12 | 5.1 |
| O=c1cc(-c2cccc(O)c2)oc2ccc(F)cc12 | 5.6 |
| O=c1cc(-c2cccc(Cl)c2)oc2ccc(Br)cc12 | 7.77 |
| O=c1cc(-c2cccc([N+](=O)[O-])c2)oc2ccc(Cl)cc12 | 8.1 |
| O=c1cc(-c2ccc(F)cc2)oc2ccc(Br)cc12 | 6.94 |
| O=c1cc(-c2ccccc2F)oc2cc(O)cc(O)c12 | 5.1 |
| O=c1cc(-c2ccccc2)oc2ccc(Br)cc12 [6-BROMOFLAVONE] | 7.15 |
| O=c1cc(-c2ccc(O)cc2)oc2cc(O)cc(O)c12 [APIGENIN] | 5.52 |
| O=c1cc(-c2ccccc2)oc2cc(O)c(O)c(O)c12 [BAICALEIN] | 5.25 |
| O=C(O)[C@H]1O[C@@H](Oc2cc3oc(-c4ccccc4)cc(=O)c3c(O)c2O)[C@H](O)[C@@H](O)[C@@H]1O [BAICALIN] | 4.11 |
| O=c1cc(-c2ccccc2)oc2cc(O)cc(O)c12 [CHRYSIN] | 5.52 |
| O=c1cc(-c2ccccc2)oc2ccccc12 [FLAVONE] | 6 |
| COc1c(O)cc2oc(-c3ccc(O)cc3)cc(=O)c2c1O [HISPIDULIN] | 6 |
| O=c1cc(-c2ccc(O)cc2)oc2cc(O)c(O)c(O)c12 [SCUTELLAREIN] | 4.92 |
| COc1c(O)cc(O)c2c(=O)cc(-c3ccccc3)oc12 [WOGONIN] | 5.69 |
